Here are results for one molecule from article PMC6148246, “HS-1371, a novel kinase inhibitor of RIP3-mediated necroptosis” (Experimental & Molecular Medicine, 2018).

Data set [1] has as its target T1, necrosome complex (Homo sapiens, UniProt Q9Y572).
T1 construct: endogenous in cells; host or cells: HT-29
Briefly: Necrosome complex formation, anti-RIP3 immunoprecipitation in HT-29 cells. To be noted: HT-29, 5 μM pretreated 2 h, TSZ 4 h. It is filed as cell-based. Here is the method:
Cells were rinsed in cold phosphate-buffered saline (PBS) and lysed in M2 buffer containing 20 mM Tris at pH 7, 0.5% NP-40, 250 mM NaCl, 3 mM EDTA, 3 mM EGTA, 2 mM DTT, 0.5 mM PMSF, 20 mM β-glycerol phosphate, 1 mM sodium vanadate, and 1 μg/mL leupeptin. The cell extracts were subjected to western blot analysis. For immunoprecipitation, lysates were mixed and precipitated with antibody and protein A-agarose beads overnight or for 4 h at 4 °C. Bound proteins were removed by boiling in SDS and resolved by SDS-PAGE, and immunoblotting was visualized by enhanced chemiluminescence (ECL, Amersham).
Fig. 2 Novel inhibitors can block RIP3 S227 phosphorylation. a Western blotting showing various kinase inhibitor effects on RIP3 S227 auto-phosphorylation. HT-29 cells were treated with four tested kinase inhibitors (1308, 1336, 1338, and 1371, 10 μM) for 9 h. As a control, KK5101 (Trk alpha inhibitor) and HS829 (IKK beta inhibitor) were also treated at a concentration of 10 μM for 9 h. […] HT-29 cells were treated with 4 tested kinase inhibitors for 24 h, and cell viability was analyzed by MTT assay or phase-contrast microscopy. […] Cell lysates were analyzed by immunoblotting. f HT-29 cells were pretreated with Nec-1 (40 μM), DAB (5 μM) or HS-1371 (5 μM) for 2 h and then treated with TSZ for 4 h. […] Immunoprecipitates and total lysates were analyzed by Western blotting

The test system of data set [2] is HT-29 cells. Briefly: TSZ-induced necroptotic cell death in HT-29 cells (MTT assay). In kind it is cell-based. The method, then:
Cell viability was determined using tetrazolium dye colorimetric tests (the MTT assay) read at 570 nm. PI staining was quantified using propidium iodide (Cat. No. 51-66211E, BD Biosciences). Lactate dehydrogenase (LDH) leakage was quantified using the […] according to the manufacturer’s instructions. The LDH absorbance was read at 490 nm, and the mean ± STDEV of duplicates is presented.
HT-29 cells were pretreated with four tested inhibitors for 2 h and then treated with TSZ (6 h for immunoblotting, 24 h for cell death assay). Cell lysates were analyzed by immunoblotting, and cell viability was analyzed by MTT assay or phase-contrast microscopy. The results are presented as the means ± SEM. *P < 0.05, **P < 0.01, ***P < 0.001. b Protection of necroptosis by HS-1371 treatment is similar with dabrafenib, which abolished downstream events. HT-29 cells were pretreated with various necroptosis inhibitors and HS-1371 before TSZ treatment. Cell lysates were analyzed by immunoblotting, and cell viability was analyzed by MTT assay (left panel). Cells were stained with phospho-MLKL antibody and analyzed by confocal fluorescence microscopy (middle panel), and cell death was further analyzed by FACS analysis after PI staining (right panel). c HS-1371 protects cells from TNF-induced necroptosis in a dose-dependent manner. HT-29 cells were pretreated with indicated concentrations of HS-1371 and then treated with TSZ (6 h for immunoblotting, 24 h for cell death assay). Cell lysates were analyzed by immunoblotting, and cell viability was analyzed by MTT assay or phase-contrast microscopy. The results are presented as means ± SEM. *P < 0.05, **P < 0.01, ***P < 0.001 TEXT PRINTED IN THE PICTURE: (b) TSZ: 20.7 | (b) TSZ + Nec-1: 5.8 | (b) TSZ + DAB: 5.5 | (b) TSZ + 1371: 6.8 DOUBTS OF THE COPYIST ABOUT THIS PICTURE: Panel b, flow cytometry plots: the red gate numbers are printed without a measure or unit, so none is given / Panel b: the 'Untreated' control plot prints 7.7; left out because it is not a substance

For data set [3], the target named is RIP3 (Homo sapiens, UniProt Q9Y572). Briefly: Radiometric kinase assay of RIP3 (Reaction Biology). To be noted: 10 μM ATP, 20 μM MBP substrate; read-out: IC50 against RIP3. Set-up: purchased Reaction Biology Corp (Malvern, PA, USA). In kind it is biochemical. The method, then:
The inhibitory activities of all compounds toward RIP3 were measured by Reaction Biology Corp (Malvern, PA, USA) by means of radiometric kinase assays ([…]). The enzymatic activity of RIP3 was monitored using 20 μM of myelin basic protein (MBP) dissolved in freshly prepared reaction buffer (20 mM HEPES (pH 7.5), 10 mM MgCl2, 1 mM EGTA, 0.02% BRIJ-35, 0.02 mg/mL BSA, 0.1 mM Na3VO4, 2 mM DTT, 1% DMSO). Each putative RIP3 inhibitor was dissolved in 100% DMSO at specific concentrations and serially diluted with epMotion 5070 in DMSO. Human RIP3 and 20 μM of peptide substrate (MBP) were added to the reaction buffer. After delivering the candidate inhibitor dissolved in DMSO to the kinase reaction mixture using Acoustic technology (Echo550; nanoliter range), the reaction mixture was incubated for 20 min at room temperature. To initiate the enzymatic reaction, ^33P-ATP with specific activity of 10 μCi/μL was added to the reaction mixture to reach a final ATP concentration of 10 μM. Radioactivity was then monitored using the filter binding method after incubation of the reaction mixture for 2 h at room temperature. At given concentrations of inhibitor, biochemical potency was measured by the percent remaining kinase activity with respect to the vehicle (dimethyl sulfoxide) reaction. Curve fits and IC50 values were then obtained using the PRISM program (GraphPad Software). […]

Structures are written as SMILES.

Sequence of RIP3 (Q9Y572 whole entry): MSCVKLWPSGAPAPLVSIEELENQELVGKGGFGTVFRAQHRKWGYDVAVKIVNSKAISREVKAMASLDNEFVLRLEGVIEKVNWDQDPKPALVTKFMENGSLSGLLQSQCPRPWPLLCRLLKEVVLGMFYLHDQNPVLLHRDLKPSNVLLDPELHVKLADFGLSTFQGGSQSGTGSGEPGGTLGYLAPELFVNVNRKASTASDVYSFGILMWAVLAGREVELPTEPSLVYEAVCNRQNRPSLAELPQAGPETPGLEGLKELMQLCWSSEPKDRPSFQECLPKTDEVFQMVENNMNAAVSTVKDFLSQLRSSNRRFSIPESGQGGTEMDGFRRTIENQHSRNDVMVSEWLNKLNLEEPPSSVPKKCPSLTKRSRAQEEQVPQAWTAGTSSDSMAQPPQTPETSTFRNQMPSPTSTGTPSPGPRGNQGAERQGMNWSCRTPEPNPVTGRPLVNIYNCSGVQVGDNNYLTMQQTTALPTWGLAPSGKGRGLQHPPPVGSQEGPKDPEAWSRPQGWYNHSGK
T1 sequence (Q9Y572 whole entry, one chain of several): as the sequence (Q9Y572 whole entry) above

One may read the IC50 as the point on the concentration scale where inhibition reaches its midpoint. As for `Cc1ccc(Oc2ccnc3cc(-c4cnn(C5CCNCC5)c4)ccc23)cc1` [HS-1371, 7-(1-(Piperidin-4-yl)-1H-pyrazol-4-yl)-4-(p-tolyloxy)quinoline], in data set [1], the “necrosome complex formation (MLKL recruitment)” value is on record as “blocked necrosome complex formation”. For the same molecule, in data set [2] (HT-29, 5 μM, pretreated 1 h or applied 1 or 2 h after induction), the “TNF-induced cell death, pre-treatment and post-treatment” value is on record as “completely inhibited”. For the same molecule, the “viability in response to TSZ-mediated necroptosis, dose-dependent” value in data set [2] (HT-29, indicated concentrations, TSZ 24 h) is recorded as “effectively restored”. Besides, the “cellular cytotoxicity, post-treatment after TSZ” value in data set [2] (HT-29, post-treatment until approximately 5 h after TSZ) is listed as “significantly reduced”. For the same molecule, the “rescue from TSZ-induced cell death” value in data set [2] (HT-29, pretreated 2 h, TSZ 24 h) is listed as “rescued”. Besides, the 50% inhibitory concentration (IC50) in data set [3] came out at 20.8 nM.
